Article PMC10144994, “Bioactive Metabolite from Endophytic Aspergillus versicolor SB5 with Anti-Acetylcholinesterase, Anti-Inflammatory and Antioxidant Activities: In Vitro and In Silico Studies” (Microorganisms, 2023)

Molecular target: T1, LOX-1 (lipoxygenase from Glycine max, type I-B) (Glycine max, UniProt P08170)
T1 construct: gene LOX1.1
T1 sequence (P08170 1-839): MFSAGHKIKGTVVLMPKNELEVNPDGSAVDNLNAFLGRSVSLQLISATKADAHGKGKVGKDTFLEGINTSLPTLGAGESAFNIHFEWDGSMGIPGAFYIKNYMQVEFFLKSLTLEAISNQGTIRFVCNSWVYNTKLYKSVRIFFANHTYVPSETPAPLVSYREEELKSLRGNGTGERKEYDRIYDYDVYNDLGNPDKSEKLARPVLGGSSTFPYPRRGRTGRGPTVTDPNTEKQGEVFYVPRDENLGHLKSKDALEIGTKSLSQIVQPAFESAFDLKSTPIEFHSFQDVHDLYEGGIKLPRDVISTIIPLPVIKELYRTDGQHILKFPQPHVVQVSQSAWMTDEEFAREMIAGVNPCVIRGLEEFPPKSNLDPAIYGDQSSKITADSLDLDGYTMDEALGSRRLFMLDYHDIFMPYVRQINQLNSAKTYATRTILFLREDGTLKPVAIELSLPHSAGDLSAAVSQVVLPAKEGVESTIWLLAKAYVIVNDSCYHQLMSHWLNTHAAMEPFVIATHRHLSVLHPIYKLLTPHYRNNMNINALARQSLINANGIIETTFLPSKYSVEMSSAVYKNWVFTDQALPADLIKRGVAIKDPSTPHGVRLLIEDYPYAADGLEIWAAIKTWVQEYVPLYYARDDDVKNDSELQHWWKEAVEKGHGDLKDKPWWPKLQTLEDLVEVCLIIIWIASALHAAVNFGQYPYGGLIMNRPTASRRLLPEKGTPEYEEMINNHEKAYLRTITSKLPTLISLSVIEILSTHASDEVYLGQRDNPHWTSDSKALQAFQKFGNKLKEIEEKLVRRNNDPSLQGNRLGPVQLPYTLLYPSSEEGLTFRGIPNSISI
Assay: soybean LOX, linoleic acid substrate, absorbance at […] nm
Format: biochemical

COc1cc(O)c2c(c1)C(=O)c1cc(C)cc(O)c1C2=O [C1, 1,8-dihydroxy-3-methoxy-6-methylanthracene-9,10-dione]
IC50: 61.7 µM
